{"source": "paper PMC11487561", "about": "(ACS Chemical Neuroscience, 2024)", "key": {"Adrenergic β1": {"target": "T1, Adrenergic β1 (Homo sapiens, UniProt P08588)", "T1 construct": "Eurofins Panlabs (contract screen)", "T1 sequence (P08588 whole entry)": "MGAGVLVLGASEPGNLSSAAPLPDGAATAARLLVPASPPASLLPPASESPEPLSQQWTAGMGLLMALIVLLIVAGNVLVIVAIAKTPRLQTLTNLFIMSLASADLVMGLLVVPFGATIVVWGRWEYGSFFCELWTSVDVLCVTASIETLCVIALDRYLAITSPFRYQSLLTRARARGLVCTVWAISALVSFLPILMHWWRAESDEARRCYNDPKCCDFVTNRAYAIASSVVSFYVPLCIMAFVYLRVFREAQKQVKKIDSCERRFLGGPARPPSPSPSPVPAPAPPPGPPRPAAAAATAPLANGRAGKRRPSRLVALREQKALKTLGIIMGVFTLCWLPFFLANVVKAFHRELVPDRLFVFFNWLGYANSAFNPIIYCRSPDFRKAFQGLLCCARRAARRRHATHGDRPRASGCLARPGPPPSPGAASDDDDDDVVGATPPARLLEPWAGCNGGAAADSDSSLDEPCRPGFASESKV", "assay": "Lead Profiling Screen – Eurofins Panlabs", "type": "binding", "conditions": "read-out: % inh at 10 μM"}, "[1]": {"tested_on": "Calcium Channel L-Type, Dihydropyridine", "assay": "Lead Profiling Screen – Eurofins Panlabs", "type": "binding, rat"}, "[2]": {"assay": "Intrinsic clearance in human liver microsomes", "type": "in vitro ADME", "procedure": "Intrinsic Clearance in Rat and Human Liver Microsomes\nThe in vitro intrinsic clearance (CL int) was investigated in commercially obtained hepatic microsomes from rat and human donors using the substrate depletion (i.e., loss-of-parent vs. time, or t 1/2 method) approach with analyte detection via liquid chromatography-tandem mass spectrometry (LC-MS/MS). For each species, mean %parent remaining values at each time point were calculated from replicates raw data (analyte:IS peak area ratios) and used to determine in vitro t 1/2 and CLint.\nExperiments were carried out using a robot-assisted (TECAN model Evo 200). Compound was incubated (1 µM final concentration) in buffer (100 mM potassium phosphate pH 7.4 with 3 mM MgCl2) containing hepatic microsomes (0.5 mg/mL final concentration) from multiple species, discretely, at 37 °C under constant orbital shaking. After 5 minutes (pre-incubation), reactions were initiated by addition of nicotinamide adenine dinucleotide phosphate (NADPH, 1 mM final concentration). At selected time intervals (0, 3, 7, 15, 25, and 45 minutes) post-addition of NADPH, aliquots (50 µL) were taken and placed into a 96-shallow-well plate containing ice cold acetonitrile (150 µL) with carbamazepine (IS, 50 nM). The plates were then centrifuged (3000 rcf at 4 °C) for 10 minutes. The supernatants were transferred to a new 96-shallow-well daughter plate and diluted (1:1 v/v) with water (Milli-Q filtered). The plates were then sealed in preparation for LC-MS/MS analysis (see below).\nRaw LC-MS/MS peak area data generated from the assay samples were used to construct natural log-transformed %parent remaining vs. time plots (using t = 0 minute post-NADPH addition sample data as starting point set to 100%). In vitro compound half-life (t 1/2) values were obtained using the following […]\nk is the slope from linear regression analysis of the natural log-transformed data (using means from Where all replicates at each time point). Resulting t 1/2 values were then used to calculate hepatic CLint values according to the following equation and with the use of species-specific scale-up factors for liver weight (grams) per total body weight (kg): […]\nCLint = in vitro t1/2 x 0.5 mg microsomes x 1 gram liver x kg body wt aScale-up factors used are 45 (rat) and 20 (human).2\nPredicted hepatic clearance (CLhep) was calculated using the following equation: […]\nQh represents hepatic blood flow (mL/min/kg): 21 for human, 70 for rat, and 90 for mouse.\nPrepared samples were injected (10 µL each) onto an AB Sciex Triple Quad 4500 mass spectrometer system with an Agilent 1260 Infinity II pump and autosampler. Mass spectrometer conditions are described in Table S1. Quantitation of compounds was performed via AB Sciex Multiquant software using the raw analyte:IS peak area ratios. The typical detection range was 0.5 ng/mL to ≥ 5,000 ng/mL utilizing a quadratic equation regression with 1/x2 weighting. […]\nTable S1. LC-MS/MS Conditions*\nMobile phase A 0.5% Formic Acid in Water\nMobile phase B 0.5% Formic Acid in Acetonitrile\nGradient Time % Mobile Phase B"}, "In vivo dog iv/po PK": {"assay": "In vivo dog iv/po PK", "procedure": "Intravenous pharmacokinetics and plasma-brain level determination (IV PK PBL) VU6016235 […]\nFor dog PK, VU6016235 was formulated in 10% (2-Hydroxypropyl)-beta-cyclodextrin (HPbCD) at a concentration of 0.5 mg/ml and administered as a single dose of 0.5 mg/kg to male beagles (1 ml/kg, n=3).\nBlood samples were collected serially from a surgically implanted carotid artery catheter in each animal over multiple post-administration time points (0.033, 0.117, 0.25, 0.5, 1, 2, 4, 7, and 24 hours) into chilled, K2EDTA anticoagulant-fortified tubes and immediately placed on wet ice. […]\nover multiple post-administration time points (0.25, 0.5, 1, 2, 4, 7, and 24 hours) into chilled, K2EDTA anticoagulant-fortified tubes and immediately placed on wet ice. The blood samples were then centrifuged (1700 rcf, 5 minutes, 4 °C) in order to obtain plasma samples, which were stored at -80 °C until analysis […]\nSamples preparation for bioanalysis\nPlasma samples from the in-life phase of the study were thawed at ambient temperature (benchtop), and then aliquots (20 µL per sample) were transferred to a 96-shallow-well (V-bottom) plate. Matrix-matched quality control (QC) samples and a standard curve of […] (1 mg/mL DMSO stock solution) were prepared in blank rat plasma (K2EDTA-treated) or blank brain homogenate via serial dilution and transferred (20 µL each) to the plate along with multiple blank plasma and brain homogenate samples. Acetonitrile (120 µL) containing IS (10 nM carbamazepine) was added to each well of the plate to precipitate protein. The plate was then centrifuged (4000 rcf, 5 minutes, ambient temperature), and resulting supernatants (60 µL each) were transferred to a new 96-shallow-well (V-bottom) plate containing an equal volume (60 µL per well) of water (Milli-Q purified). […]\nThe plasma standard curve and QCs were used for compounds quantitation in brain.\nBinding in plasma from rat and human.\nDetermination of compounds’ fraction unbound (f u) in plasma from rat and human was conducted in vitro via equilibrium dialysis using HTDialysis membrane plates. Dialysis membranes (four paired strips per HTD assay) were hydrated as described by the manufacturer and inserted into the HTD plate, which was assembled and prepared for sample addition by the dispensing of blank buffer (DPBS, 100 µL/well) into the ‘top half’ of each membrane-split well. Each compound was diluted into plasma from each species (5 µM final concentration), which was aliquoted in triplicate to the ‘bottom half’ of the prepared HTD plate wells. The HTD plate was sealed and incubated for 6 hours at 37 °C. Following incubation, each well (both top and bottom halves) were transferred (20 µL) to the corresponding wells of a 96-shallow-well (V-bottom) plate. The daughter plates were then matrix-matched (buffer side wells received equal volume of plasma, and plasma side wells received equal volume of buffer), and extraction solution (120 µL; acetonitrile containing 50 nM carbamazepine as IS) was added to all wells of both daughter plates to precipitate protein and extract test article. The plates were then sealed and centrifuged (3500 rcf) for 10 minutes at ambient temperature. Supernatant (60 µL) from each well of the daughter plates was then transferred to the corresponding wells of new daughter plates (96-shallow-well, V bottom) containing water (Milli-Q, 60 µL/well), and the plates were sealed in preparation for LC-MS/MS analysis (see below). fu was calculated as (analyte to IS MS peak area ratio from Trans-buffer side) / (analyte to IS MS peak area ratio from Cis-plasma side). Mean values for each species were calculated from 3 replicates."}, "[3]": {"target": "Platelet Activating Factor (PAF) (Homo sapiens, UniProt P25105)", "sequence (P25105 whole entry)": "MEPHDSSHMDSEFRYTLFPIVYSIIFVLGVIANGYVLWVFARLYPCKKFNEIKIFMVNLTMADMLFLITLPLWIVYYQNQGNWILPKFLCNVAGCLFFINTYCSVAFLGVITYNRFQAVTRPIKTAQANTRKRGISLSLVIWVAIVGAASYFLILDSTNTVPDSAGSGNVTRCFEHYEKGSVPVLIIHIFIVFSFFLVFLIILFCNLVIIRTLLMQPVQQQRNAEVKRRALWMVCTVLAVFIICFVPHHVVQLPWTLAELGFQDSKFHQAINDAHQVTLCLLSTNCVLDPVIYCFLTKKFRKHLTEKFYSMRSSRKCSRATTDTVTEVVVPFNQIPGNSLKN", "assay": "Lead Profiling Screen – Eurofins Panlabs", "type": "binding", "conditions": "read-out: % inh at 10 μM"}, "[4]": {"conditions": "male, plasma, dog (beagle), iv 0.5 mg/kg"}, "[5]": {"conditions": "male, plasma, dog (beagle), po 1.0 mg/kg, fasted"}}, "data": [{"molecule": "Cc1nc(C)c2c(n1)sc1c(NCc3ccc(C(C)(C)O)cc3)nccc12", "note": "[22g]", "values": [{"measurement": "inhibition at 10 µM", "setting": "Adrenergic β1", "result": 3, "unit": "%"}, {"measurement": "% inh at 10 μM", "setting": "[1]", "result": -1, "unit": "%"}, {"measurement": "CLint scaled at 1 µM", "setting": "[2]; pH 7.4, human liver microsomes", "result": 26, "unit": "mL/min/kg"}, {"measurement": "CLhep, human", "setting": "[2]; predicted hepatic clearance from microsomal CLint", "result": 12, "unit": "mL/min/kg"}, {"measurement": "plasma clearance as % hepatic blood flow", "setting": "In vivo dog iv/po PK; dog", "result": "~78", "unit": "% hepatic blood flow"}, {"measurement": "CLp", "setting": "In vivo dog iv/po PK; dog (beagle), iv 0.5 mg/kg, listed as VU6016235, 0.5 mg/kg", "result": 23.8, "unit": "mL/min/kg"}, {"measurement": "clearance", "setting": "In vivo dog iv/po PK; male, beagle, dog, plasma, iv, 0.5 mg/kg, dog (beagle), iv 0.5 mg/kg, read-out: CLp", "result": "~24", "unit": "mL/min/kg"}, {"measurement": "MRT", "setting": "In vivo dog iv/po PK; [4]", "result": 1.6, "unit": "h"}, {"measurement": "half-life", "setting": "In vivo dog iv/po PK; [4]", "result": 2.4, "unit": "h"}, {"measurement": "Vd", "setting": "In vivo dog iv/po PK; male, plasma, dog (beagle), iv 0.5 mg/kg, read-out: Vss", "result": 2.3, "unit": "L/kg"}, {"measurement": "AUC(0-inf)", "setting": "In vivo dog iv/po PK; [5]", "result": 200, "unit": "ng·h/mL"}, {"measurement": "Cmax", "setting": "In vivo dog iv/po PK; [5]", "result": 62.4, "unit": "ng/mL"}, {"measurement": "Tmax", "setting": "In vivo dog iv/po PK; [5]", "result": 0.83, "unit": "h"}, {"measurement": "bioavailability", "setting": "In vivo dog iv/po PK; [5]", "result": 27.5, "unit": "%"}, {"measurement": "inhibition at 10 µM", "setting": "[3]", "result": 7, "unit": "%"}]}]}
